# Experimental data published in US12263171B2, “7-, 8-, and 10-substituted amino triazolo quinazoline derivatives as adenosine receptor antagonists, pharmaceutical compositions and their use” (Merck Sharp & Dohme LLC, priority 2018, dated 2025).
# How the values were obtained:
# [1] = molecular target: human A2a adenosine receptor (Homo sapiens (Human), UniProt P29274); test: A2a receptor affinity radioligand binding assay ([3H] SCH58261, membranes from HEK293 or CHO cells); conditions: unstarred values: radioligand binding
# Outline: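 Displacement of tritiated SCH58261 (working dilution 4 nM) from recombinant human A2a receptor membranes (HEK293 or CHO), 60 min at room temperature in Tris pH 7.4/MgCl2 buffer after 15–30 min compound preincubation. Scintillation counting after filtration; normalized percent effect fitted 4-parameter logistic for IC50.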
# [2] = molecular target: human A2b adenosine receptor (Homo sapiens (Human), UniProt P29275); test: A2B antagonism in cAMP cell-based assay (LANCE cAMP, HEK293 cells, 600 nM adenosine); conditions: for IC50: values marked *: cAMP cell-based assay
# Sequence of human A2b adenosine receptor (P29275 whole entry): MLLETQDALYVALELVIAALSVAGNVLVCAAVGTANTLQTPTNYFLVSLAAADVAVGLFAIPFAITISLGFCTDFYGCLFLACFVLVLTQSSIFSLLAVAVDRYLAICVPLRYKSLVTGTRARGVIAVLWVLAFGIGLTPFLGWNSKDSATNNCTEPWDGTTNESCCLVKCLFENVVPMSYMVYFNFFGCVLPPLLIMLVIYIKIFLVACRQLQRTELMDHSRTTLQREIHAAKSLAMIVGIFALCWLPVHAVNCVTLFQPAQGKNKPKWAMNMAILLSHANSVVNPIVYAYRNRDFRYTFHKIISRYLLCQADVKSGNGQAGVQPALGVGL
# Sequence of human A2a adenosine receptor (P29274 whole entry): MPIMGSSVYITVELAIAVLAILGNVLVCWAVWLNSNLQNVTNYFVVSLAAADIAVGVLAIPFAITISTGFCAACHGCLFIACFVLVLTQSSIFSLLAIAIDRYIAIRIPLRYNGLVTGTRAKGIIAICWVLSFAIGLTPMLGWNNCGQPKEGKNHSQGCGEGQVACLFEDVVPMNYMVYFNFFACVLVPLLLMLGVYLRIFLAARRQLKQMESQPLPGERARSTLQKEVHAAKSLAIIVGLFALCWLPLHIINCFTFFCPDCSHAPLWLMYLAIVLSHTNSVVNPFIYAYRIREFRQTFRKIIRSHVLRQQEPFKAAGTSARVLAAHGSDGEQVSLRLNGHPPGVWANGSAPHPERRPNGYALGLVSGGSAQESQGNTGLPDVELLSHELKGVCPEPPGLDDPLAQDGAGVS
IC50 [1] [nM],IC50 [2] [nM],"*A2B cAMP % inh. @ 10000 nM ([2]; @ 10000 nM, marked *) [% inh. @ 10000 nM*]",Compound
0.4,6.6,–,"CC[C@H]1CC[C@H](c2nc3c4cccc(OC)c4nc(N)n3n2)CN1c1cnn(CC(C)(C)O)c1 [Example 216B, 1-(4-((2S,5S)-5-(5-amino-7-methoxy-[1,2,4]triazolo[1,5-c]quinazolin-2-yl)-2-ethylpiperidin-1-yl)-1H-pyrazol-1-yl)-2-methylpropan-2-ol]"
0.8,22.2,–,"COc1cccc2c1nc(N)n1nc([C@@H]3CCCN(c4cnn(CC5(O)CCCC5)c4)C3)nc21 [Example 41, (R)-1-((4-(3-(5-amino-7-methoxy-[1,2,4]triazolo[1,5-c]quinazolin-2-yl)piperidin-1-yl)-1H-pyrazol-1-yl)methyl)cyclopentan-1-ol]"
10.8,404,–,"COc1cccc2c1nc(N)n1nc([C@@H]3CCC[C@@H](c4cnn(C)c4)C3)nc21 [Example 136B, 7-methoxy-2-((1R,3R)-3-(1-methyl-1H-pyrazol-4-yl)cyclohexyl)-[1,2,4]triazolo[1,5-c]quinazolin-5-amine]"
33.9,651,–,"CC[C@@H]1CC[C@@H](c2nc3c4cccc(OC)c4nc(N)n3n2)CN1c1cnn(CC(C)(C)O)c1 [Example 216A, 1-(4-((2R,5R)-5-(5-amino-7-methoxy-[1,2,4]triazolo[1,5-c]quinazolin-2-yl)-2-ethylpiperidin-1-yl)-1H-pyrazol-1-yl)-2-methylpropan-2-ol]"
0.8,386,–,"COc1cccc2c1nc(N)n1nc(C3CN(c4cnn(C5CC5)c4)CC(F)(F)C3)nc21 (single isomer, unassigned) [Example 154A]"
1.3,30,–,"COc1cccc2c1nc(N)n1nc([C@@H]3CCCN(c4cnn(C(C)(C)C)c4)C3)nc21 [Example 6, (R)-2-(1-(1-(tert-butyl)-1H-pyrazol-4-yl)piperidin-3-yl)-7-methoxy-[1,2,4]triazolo[1,5-c]quinazolin-5-amine]"
27.8,–,36,COc1cccc2c1nc(N)n1nc([C@@H]3C[C@@H](F)CN(c4cnn(C5CC5)c4)C3)nc21 [Example 148B]
1.4,38.5,–,"COc1cccc2c1nc(N)n1nc([C@@H]3CCCN(c4cnn(C5CC5)c4)C3)nc21 [Example 7, (R)-2-(1-(1-cyclopropyl-1H-pyrazol-4-yl)piperidin-3-yl)-7-methoxy-[1,2,4]triazolo[1,5-c]quinazolin-5-amine]"
0.7,31,–,"COc1cccc2c1nc(N)n1nc([C@@H]3CCCN(c4cnn(CCF)c4)C3)nc21 [Example 14, (R)-2-(1-(1-(2-fluoroethyl)-1H-pyrazol-4-yl)piperidin-3-yl)-7-methoxy-[1,2,4]triazolo[1,5-c]quinazolin-5-amine]"
3.5,213,–,"COc1cccc2c1nc(N)n1nc([C@@H]3CCCN(c4ccc(C(F)(F)F)nc4)C3)nc21 [Example 112, (R)-7-methoxy-2-(1-(6-(trifluoromethyl)pyridin-3-yl)piperidin-3-yl)-[1,2,4]triazolo[1,5-c]quinazolin-5-amine]"
2.2,712,–,"COc1cccc2c1nc(N)n1nc(C3CCC(C)N(c4cnn(C5CC5)c4)C3)nc21 (single isomer, unassigned) [Example 141A]"
2.4,210,–,"COc1cccc2c1nc(N)n1nc([C@@H]3CCCN(c4ccc(=O)n(CC(F)(F)F)c4C)C3)nc21 [Example 94, (R)-5-(3-(5-amino-7-methoxy-[1,2,4]triazolo[1,5-c]quinazolin-2-yl)piperidin-1-yl)-6-methyl-1-(2,2,2-trifluoroethyl)pyridin-2(1H)-one]"
9.3,121,–,"Cn1cc(N2CCCC(c3nc4c5cccc(F)c5nc(N)n4n3)C2)cn1 (single isomer, unassigned) [Example 131B, (S or R)-7-fluoro-2-(1-(1-methyl-1H-pyrazol-4-yl)piperidin-3-yl)-[1,2,4]triazolo[1,5-c]quinazolin-5-amine]"
14.9,314,–,"COc1cccc2c1nc(N)n1nc([C@@H]3CCCN(c4csc(C5CC5)n4)C3)nc21 [Example 85, (R)-2-(1-(2-cyclopropylthiazol-4-yl)piperidin-3-yl)-7-methoxy-[1,2,4]triazolo[1,5-c]quinazolin-5-amine]"
1,234,–,COc1cccc2c1nc(N)n1nc([C@H]3C[C@@H](F)CN(c4cnn(C5CC5)c4)C3)nc21 [Example 148A]
1,20.9,–,"COc1cc(F)c2c(c1)nc(N)n1nc([C@@H]3CC[C@H](C)N(c4cnn(CC(C)(C)O)c4)C3)nc21 [Example 223, 1-(4-((2S,5R)-5-(5-amino-10-fluoro-8-methoxy-[1,2,4]triazolo[1,5-c]quinazolin-2-yl)-2-methylpiperidin-1-yl)-1H-pyrazol-1-yl)-2-methylpropan-2-ol]"
1.2,18.1,–,COc1cccc2c1nc(N)n1nc([C@@H]3CCCN(c4ccccn4)C3)nc21 [Example 119]

IC50 [1] [nM],IC50 [2] [nM],"*A2B cAMP % inh. @ 10000 nM ([2]; @ 10000 nM, marked *) [% inh. @ 10000 nM*]",Compound
1.2,32.2,–,COc1ccc2c(c1)nc(N)n1nc([C@@H]3CCCN(c4cnn(C(C)(C)[C@H](C)O)c4)C3)nc21 [Example 225A]
56.8,1650,–,"COc1cccc2c1nc(N)n1nc(C34CC(C3)N(c3cnn(C)c3)C4)nc21 [Example 127, 7-methoxy-2-(2-(1-methyl-1H-pyrazol-4-yl)-2-azabicyclo[2.1.1]hexan-4-yl)-[1,2,4]triazolo[1,5-e]quinazolin-5-amine]"
0.5,6.3,–,CC[C@@H]1CC[C@@H](c2nc3c4ccc(OC)cc4nc(N)n3n2)CN1c1cnn(C(C)(C)CO)c1 [Example 215B]
1.6,146,–,"COc1cccc2c1nc(N)n1nc([C@@H]3CCCN(c4nnn(C)c4C)C3)nc21 [Example 79, (R)-2-(1-(1,5-dimethyl-1H-1,2,3-triazol-4-yl)piperidin-3-yl)-7-methoxy-[1,2,4]triazolo[1,5-c]quinazolin-5-amine]"
1.9,5930,–,"COc1cccc2c1nc(N)n1nc([C@@H]3CCCN(c4cc(=O)n(C)c5ccccc45)C3)nc21 [Example 90, (R)-4-(3-(5-amino-7-methoxy-[1,2,4]triazolo[1,5-c]quinazolin-2-yl)piperidin-1-yl)-1-methylquinolin-2(1H)-one]"
1.2,116,–,"Nc1nc2c(Cl)cccc2c2nc(C3CCCN(c4cnn(C5CC5)c4)C3)nn12 (racemic) [Example 133, rac-7-chloro-2-(1-(1-cyclopropyl-1H-pyrazol-4-yl)piperidin-3-yl)-[1,2,4]triazolo[1,5-c]pyquinazolin-5-amine]"
0.8,540,–,"COc1cccc2c1nc(N)n1nc([C@@H]3CCCN(c4cc(C(F)(F)F)nn4C)C3)nc21 [Example 77, (R)-7-methoxy-2-(1-(1-methyl-3-(trifluoromethyl)-1H-pyrazol-5-yl)piperidin-3-yl)-[1,2,4]triazolo[1,5-c]quinazolin-5-amine]"
14,42.1,–,"COc1cccc2c1nc(N)n1nc([C@@H]3CCN(c4cnn(C(C)(C)C)c4)C3)nc21 [Example 163, (R)-2-(1-(1-(tert-butyl)-1H-pyrazol-4-yl)pyrrolidin-3-yl)-7-methoxy-[1,2,4]triazolo[1,5-c]quinazolin-5-amine]"
0.8,3700,–,"COc1cccc2c1nc(N)n1nc([C@@H]3CCCN(c4c(C)nn(C)c4C)C3)nc21 [Example 11, (R)-7-methoxy-2-(1-(1,3,5-trimethyl-1H-pyrazol-4-yl)piperidin-3-yl)-[1,2,4]triazolo[1,5-c]quinazolin-5-amine]"
0.4,13.5,–,"COc1ccc2c(c1)nc(N)n1nc([C@H]3C[C@@H](C)CN(c4cnn(C(C)(C)CO)c4)C3)nc21 [Example 222C, 2-(4-((3S,5R)-3-(5-amino-8-methoxy-[1,2,4]triazolo[1,5-c]quinazolin-2-yl)-5-methylpiperidin-1-yl)-1H-pyrazol-1-yl)-2-methylpropan-1-ol]"
0.6,104,–,"COc1cccc2c1nc(N)n1nc([C@@H]3CCCN(c4cnn5ncccc45)C3)nc21 [Example 12, (R)-7-methoxy-2-(1-(pyrazolo[1,5-b]pyridazin-3-yl)-piperidin-3-yl)-[1,2,4]triazolo[1,5-c]quinazolin-5-amine]"
5,3010,–,CCn1cc(N2C[C@H](c3nc4c5cccc(OC)c5nc(N)n4n3)CC[C@@H]2C)cn1 [Example 140D]
2.3,18.2,–,"COc1cccc2c1nc(N)n1nc([C@@H]3CCCN(c4ncc[nH]4)C3)nc21 [Example 80, (R)-2-(1-(1H-imidazol-2-yl)piperidin-3-yl)-7-methoxy-[1,2,4]triazolo[1,5-c]quinazolin-5-amine]"
13.2,231,–,"COc1cccc2c1nc(N)n1nc([C@@H]3CCN(c4cnn(C5CC5)c4)C3)nc21 [Example 161, (R)-2-(1-(1-cyclopropyl-1H-pyrazol-4-yl)pyrrolidin-3-yl)-7-methoxy-[1,2,4]triazolo[1,5-c]quinazolin-5-amine]"
50.8,1700,–,"COc1cccc2c1nc(N)n1nc([C@@H]3CCCN(c4cnn(C5CC6(COC6)C5)c4)C3)nc21 [Example 31, (R)-2-(1-(1-(2-oxaspiro[3.3]heptan-6-yl)-1H-pyrazol-4-yl)piperidin-3-yl)-7-methoxy-[1,2,4]triazolo[1,5-c]quinazolin-5-amine]"
1.5,86,–,"COc1ccc2c(c1)nc(N)n1nc([C@@H]3CCCN(c4cnn([C@H](C)[C@H](C)O)c4)C3)nc21 [Example 221B, (2S,3R)-3-(4-((R)-3-(5-amino-8-methoxy-[1,2,4]triazolo[1,5-c]quinazolin-2-yl)piperidin-1-yl)-1H-pyrazol-1-yl)butan-2-ol]"
